One assay has as its target T1, hV1a receptor (Homo sapiens, UniProt P37288).
T1 construct: expressed in transfected cells; host or cells: HEK-293
Put plainly: hV1a receptor transcriptional reporter (luciferase) agonist assay. The format is cell-based. As to the method:
(§1) Agonist activity of compounds on the hV1a receptor was determined in a transcriptional reporter assay by transiently transfecting a hV1a receptor expression DNA into HEK-293 cells in concert with a reporter DNA containing intracellular calcium responsive promoter elements regulating expression of firefly luciferase. See Boss, V., Talpade, D. J., Murphy, T. J. J. Biol. Chem. 1996, May 3; 271(18), 10429-10432 for further guidance on this assay. […] To determine selectivity, compounds were tested in luciferase-based transcriptional reporter assays expressing the human oxytocin (hOT) receptor. Assays for other receptors (hV2, hV1b, rat V1a and rat V2) were also conducted.
(§2) The EC50 value given is the geometric mean expressed in nanomol/L (nM). Selectivity values are given as EC50 ratios.

Assay [1] addresses T2, human oxytocin (hOT) receptor (Homo sapiens, UniProt P30559).
T2 construct: expressed in transfected cells
T2 sequence (P30559 1-389): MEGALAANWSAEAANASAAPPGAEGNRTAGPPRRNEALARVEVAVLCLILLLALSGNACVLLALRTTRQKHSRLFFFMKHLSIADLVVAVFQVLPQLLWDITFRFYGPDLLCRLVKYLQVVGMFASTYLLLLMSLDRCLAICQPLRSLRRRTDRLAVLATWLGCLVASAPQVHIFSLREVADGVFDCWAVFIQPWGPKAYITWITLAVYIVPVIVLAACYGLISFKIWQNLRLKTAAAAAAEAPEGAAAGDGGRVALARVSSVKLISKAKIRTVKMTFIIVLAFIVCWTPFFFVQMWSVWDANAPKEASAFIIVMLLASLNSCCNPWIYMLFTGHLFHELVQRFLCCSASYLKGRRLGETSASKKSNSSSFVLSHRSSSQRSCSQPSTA
Nature of the assay: luciferase-based transcriptional reporter assay, selectivity hOT versus hV1a. The format is cell-based. As for the experimental part: as §1, §2

The mark [2] stands for this setting: HEK-293 cells transiently transfected with hV1a receptor, 5 hours exposure, geometric mean, read-out: EC50 hV1a receptor.
The mark [3] stands for this setting: class symbol, agonist efficacy at hOT receptor compared to AVP.

Where two headings read alike, the source gives them in different places. Positions of bridges follow the written chain, without caps; N, C: chain ends. Non-standard residues stand in square brackets, D forms with d. Residues, ends and D or L forms follow the SMILES beside them. *: point of attachment. Ala(4-thiazolyl) = N[C@@H](Cc1cscn1)C(=O)O; Ala(2-furyl) = N[C@@H](Cc1ccco1)C(=O)O; Orn(iPr) = CC(C)NCCC[C@H](N)C(=O)O; 2Pal = N[C@@H](Cc1ccccn1)C(=O)O; 3Pal = N[C@@H](Cc1cccnc1)C(=O)O; 2Thi = N[C@@H](Cc1cccs1)C(=O)O; Orn = NCCC[C@H](N)C(=O)O; Dab = NCC[C@H](N)C(=O)O; NHCH2CH2OH = OCCN*; NHiBu = CC(C)CN*; NHOH = ON*

T1 sequence (P37288 whole entry): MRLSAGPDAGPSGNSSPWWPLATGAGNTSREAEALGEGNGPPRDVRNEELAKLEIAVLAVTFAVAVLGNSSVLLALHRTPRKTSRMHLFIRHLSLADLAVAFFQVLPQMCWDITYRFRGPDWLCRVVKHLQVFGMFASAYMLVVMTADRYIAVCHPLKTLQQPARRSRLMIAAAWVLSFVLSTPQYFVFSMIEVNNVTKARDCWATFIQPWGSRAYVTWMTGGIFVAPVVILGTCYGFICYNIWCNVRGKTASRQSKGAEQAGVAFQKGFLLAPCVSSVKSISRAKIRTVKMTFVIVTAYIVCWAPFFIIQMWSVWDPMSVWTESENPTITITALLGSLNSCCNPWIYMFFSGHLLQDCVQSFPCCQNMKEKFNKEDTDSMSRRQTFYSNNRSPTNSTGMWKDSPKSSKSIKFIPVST

A word on the EC50: it is the concentration giving half of the maximal effect. As for `CC[C@H](C)[C@@H]1NC(=O)[C@H](Cc2ccccc2)NC(=O)[C@@H](N)CSSC[C@@H](C(=O)N2CCC[C@H]2C(=O)N[C@@H](CCCN)C(=O)NCC(N)=O)NC(=O)[C@H](CC(N)=O)NC(=O)[C@H](CC(=O)NC)NC1=O` [Compound 49] (H-CFID(NHMe)NCP[Orn]G-NH2; disulfide 1-6; N-terminus and C-terminus assumed), the EC50 on hV1a receptor (setting [2]) was found to be 0.00358 µM. Moreover, in assay [1] (setting [3]), the “selectivity hOT/hV1a” value was “+ (selective hV1a receptor agonist; EC50 hOT/hV1a ratio not determined due to very low agonist efficacy (<30% compared to AVP) at the hOT receptor)”.

On to `CCNC(=O)C[C@@H]1NC(=O)[C@H]([C@@H](C)CC)NC(=O)[C@H](Cc2ccccc2)NC(=O)[C@@H](N)CSSC[C@@H](C(=O)N2CCC[C@H]2C(=O)N[C@@H](CCCN)C(=O)NCC(N)=O)NC(=O)[C@H](CC(N)=O)NC1=O` [Compound 48] (H-CFID(NHEt)NCP[Orn]G-NH2; disulfide 1-6; N-terminus and C-terminus assumed), for which the EC50 at hV1a receptor (setting [2]) worked out at 0.0057 µM. In assay [1] (setting [3]), the “selectivity hOT/hV1a” value is “+ (selective hV1a receptor agonist; EC50 hOT/hV1a ratio not determined due to very low agonist efficacy (<30% compared to AVP) at the hOT receptor)”.

Turning to `CC[C@H](C)[C@@H]1NC(=O)[C@H](Cc2cscn2)NC(=O)[C@@H](N)CSSC[C@@H](C(=O)N2CCC[C@H]2C(=O)N[C@@H](CCN)C(=O)NCC(N)=O)NC(=O)[C@H](CC(N)=O)NC(=O)[C@H](CCC(N)=O)NC1=O` [Compound 13] (H-C[Ala(4-thiazolyl)]IQNCP[Dab]G-NH2; disulfide 1-6; N-terminus and C-terminus assumed), the EC50 at hV1a receptor (setting [2]) was 0.0188 µM. In addition, the “selectivity hOT/hV1a” value in assay [1] (setting [3]) is on record as “+ (selective hV1a receptor agonist; EC50 hOT/hV1a ratio not determined due to very low agonist efficacy (<30% compared to AVP) at the hOT receptor)”.

Consider `CC[C@H](C)[C@@H]1NC(=O)[C@H](Cc2ccco2)NC(=O)[C@@H](N)CSSC[C@@H](C(=O)N2CCC[C@H]2C(=O)N[C@@H](CCCN)C(=O)NCC(N)=O)NC(=O)[C@H](CC(N)=O)NC(=O)[C@H](CC(N)=O)NC1=O` [Compound 38] (H-C[Ala(2-furyl)]INNCP[Orn]G-NH2; disulfide 1-6; N-terminus and C-terminus assumed), for which, on hV1a receptor (setting [2]), the EC50 came to 0.0101 µM. Further, the “selectivity hOT/hV1a” value in assay [1] (setting [3]) is on record as “+ (selective hV1a receptor agonist; EC50 hOT/hV1a ratio not determined due to very low agonist efficacy (<30% compared to AVP) at the hOT receptor)”.

Turning to `CC[C@H](C)[C@@H]1NC(=O)[C@H](Cc2ccccc2)NC(=O)[C@@H](N)CSSC[C@@H](C(=O)N2CCC[C@H]2C(=O)N[C@@H](CCCN)C(=O)NCC(N)=O)NC(=O)[C@H](CC(N)=O)NC(=O)[C@H](CCC(=O)NCC(C)C)NC1=O` [Compound 21] (H-CFIE(NHiBu)NCP[Orn]G-NH2; disulfide 1-6), the EC50 at hV1a receptor (setting [2]) was 0.0207 µM. Moreover, the “selectivity hOT/hV1a” value in assay [1] (setting [3]) is given as “+ (selective hV1a receptor agonist; EC50 hOT/hV1a ratio not determined due to very low agonist efficacy (<30% compared to AVP) at the hOT receptor)”.

Consider `CC[C@H](C)[C@@H]1NC(=O)[C@H](Cc2ccco2)NC(=O)[C@@H](N)CSSC[C@@H](C(=O)N2CCC[C@H]2C(=O)N[C@@H](CCN)C(=O)NCC(N)=O)NC(=O)[C@H](CC(N)=O)NC(=O)[C@H](CC(N)=O)NC1=O` [Compound 44] (H-C[Ala(2-furyl)]INNCP[Dab]G-NH2; disulfide 1-6; N-terminus and C-terminus assumed), for which the EC50 at hV1a receptor (setting [2]) was found to be 0.0145 µM. Moreover, the “selectivity hOT/hV1a” value in assay [1] (setting [3]) was “+ (selective hV1a receptor agonist; EC50 hOT/hV1a ratio not determined due to very low agonist efficacy (<30% compared to AVP) at the hOT receptor)”.

With `CC[C@H](C)[C@@H]1NC(=O)[C@H](Cc2ccccc2)NC(=O)[C@@H](N)CSSC[C@@H](C(=O)N2CCC[C@H]2C(=O)N[C@@H](CCCN)C(=O)NCC(N)=O)NC(=O)[C@H](CC(N)=O)NC(=O)[C@H](CC(=O)NCCO)NC1=O` [Compound 23] (H-CFID(NHCH2CH2OH)NCP[Orn]G-NH2; disulfide 1-6), the EC50 on hV1a receptor (setting [2]) was 0.00797 µM. Also, in assay [1] (setting [3]), the “selectivity hOT/hV1a” value is given as “+ (selective hV1a receptor agonist; EC50 hOT/hV1a ratio not determined due to very low agonist efficacy (<30% compared to AVP) at the hOT receptor)”.

For the compound `CC[C@H](C)[C@@H]1NC(=O)[C@H](Cc2ccccn2)NC(=O)[C@@H](N)CSSC[C@@H](C(=O)N2CCC[C@H]2C(=O)N[C@@H](CCN)C(=O)NCC(N)=O)NC(=O)[C@H](CC(N)=O)NC(=O)[C@H](CCC(N)=O)NC1=O` [Compound 17] (H-C[2Pal]IQNCP[Dab]G-NH2; disulfide 1-6), the EC50 at hV1a receptor was 0.0303 µM. In addition, the “selectivity hOT/hV1a” value in assay [1] is listed as “+ (key: +: selective hV1a receptor agonist; EC50 hOT/hV1a ratio not determined due to very low agonist efficacy (<30% compared to AVP) at the hOT receptor)”.

On hV1a receptor, `CC[C@H](C)[C@@H]1NC(=O)[C@H](Cc2ccccc2)NC(=O)[C@@H](N)CSSC[C@@H](C(=O)N2CCC[C@H]2C(=O)N[C@@H](CCCN)C(=O)NCC(N)=O)NC(=O)[C@H](CC(N)=O)NC(=O)[C@H](CC(=O)N(C)C)NC1=O` [Compound 7] (H-CFID(NMe2)NCP[Orn]G-NH2; disulfide 1-6) showed an EC50 of 0.00284 µM. The “selectivity hOT/hV1a” value in assay [1] is given as “+ (key: +: selective hV1a receptor agonist; EC50 hOT/hV1a ratio not determined due to very low agonist efficacy (<30% compared to AVP) at the hOT receptor)”.

As to `CC[C@H](C)[C@@H]1NC(=O)[C@H](Cc2cccnc2)NC(=O)[C@@H](N)CSSC[C@@H](C(=O)N2CCC[C@H]2C(=O)N[C@@H](CCN)C(=O)NCC(N)=O)NC(=O)[C@H](CC(N)=O)NC(=O)[C@H](CCC(N)=O)NC1=O` [Compound 18] (H-C[3Pal]IQNCP[Dab]G-NH2; disulfide 1-6; N-terminus and C-terminus assumed), the 50% effective concentration (EC50) at hV1a receptor (setting [2]) worked out at 0.0299 µM. In addition, the “selectivity hOT/hV1a” value in assay [1] (setting [3]) is “+ (selective hV1a receptor agonist; EC50 hOT/hV1a ratio not determined due to very low agonist efficacy (<30% compared to AVP) at the hOT receptor)”.

For `CC[C@H](C)[C@@H]1NC(=O)[C@H](Cc2cccs2)NC(=O)[C@@H](N)CSSC[C@@H](C(=O)N2CCC[C@H]2C(=O)N[C@@H](CCN)C(=O)NCC(N)=O)NC(=O)[C@H](CC(N)=O)NC(=O)[C@H](CC(N)=O)NC1=O` [Compound 36] (H-C[2Thi]INNCP[Dab]G-NH2; disulfide 1-6; N-terminus and C-terminus assumed), the 50% effective concentration (EC50) at hV1a receptor (setting [2]) was found to be 0.0115 µM. For the same compound, the “selectivity hOT/hV1a” value in assay [1] (setting [3]) is “+ (selective hV1a receptor agonist; EC50 hOT/hV1a ratio not determined due to very low agonist efficacy (<30% compared to AVP) at the hOT receptor)”.

Turning to `CC[C@H](C)[C@@H]1NC(=O)[C@H](Cc2ccccc2)NC(=O)[C@@H](N)CSSC[C@@H](C(=O)N2CCC[C@H]2C(=O)N[C@@H](CCCN)C(=O)NCC(N)=O)NC(=O)[C@H](CC(N)=O)NC(=O)[C@H](CC(=O)NO)NC1=O` [Compound 24] (H-CFID(NHOH)NCP[Orn]G-NH2; disulfide 1-6; N-terminus and C-terminus assumed), the EC50 at hV1a receptor (setting [2]) was found to be 0.00409 µM. Moreover, in assay [1] (setting [3]), the “selectivity hOT/hV1a” value is reported as “+ (selective hV1a receptor agonist; EC50 hOT/hV1a ratio not determined due to very low agonist efficacy (<30% compared to AVP) at the hOT receptor)”.

As to `CCNC(=O)CC[C@@H]1NC(=O)[C@H]([C@@H](C)CC)NC(=O)[C@H](Cc2ccccc2)NC(=O)[C@@H](N)CSSC[C@@H](C(=O)N2CCC[C@H]2C(=O)N[C@@H](CCCN)C(=O)NCC(N)=O)NC(=O)[C@H](CC(N)=O)NC1=O` [Compound 20] (H-CFIE(NHEt)NCP[Orn]G-NH2; disulfide 1-6; N-terminus and C-terminus assumed), on hV1a receptor (setting [2]), the EC50 is 0.0393 µM. In addition, the “selectivity hOT/hV1a” value in assay [1] (setting [3]) was “+ (selective hV1a receptor agonist; EC50 hOT/hV1a ratio not determined due to very low agonist efficacy (<30% compared to AVP) at the hOT receptor)”.

Consider `CC[C@H](C)[C@@H]1NC(=O)[C@H](Cc2cccs2)NC(=O)[C@@H](N)CSSC[C@@H](C(=O)N2CCC[C@H]2C(=O)N[C@@H](CCCN)C(=O)NCC(N)=O)NC(=O)[C@H](CC(N)=O)NC(=O)[C@H](CC(N)=O)NC1=O` [Compound 33] (H-C[2Thi]INNCP[Orn]G-NH2; disulfide 1-6; N-terminus and C-terminus assumed), for which the 50% effective concentration (EC50) on hV1a receptor (setting [2]) stood at 0.0146 µM. The “selectivity hOT/hV1a” value in assay [1] (setting [3]) is reported as “+ (selective hV1a receptor agonist; EC50 hOT/hV1a ratio not determined due to very low agonist efficacy (<30% compared to AVP) at the hOT receptor)”.

`CC[C@H](C)[C@@H]1NC(=O)[C@H](Cc2cccs2)NC(=O)[C@@H](N)CSSC[C@@H](C(=O)N2CCC[C@H]2C(=O)N[C@@H](CCCNC(C)C)C(=O)NCC(N)=O)NC(=O)[C@H](CC(N)=O)NC(=O)[C@H](CC(N)=O)NC1=O` [Compound 43] (H-C[2Thi]INNCP[Orn(iPr)]G-NH2; disulfide 1-6; N-terminus and C-terminus assumed): at hV1a receptor (setting [2]), the EC50 came out at 0.0137 µM. The “selectivity hOT/hV1a” value in assay [1] (setting [3]) is listed as “+ (selective hV1a receptor agonist; EC50 hOT/hV1a ratio not determined due to very low agonist efficacy (<30% compared to AVP) at the hOT receptor)”.
